Biological target: T1, ITK (Homo sapiens, UniProt Q08881)
T1 sequence (Q08881 1-620): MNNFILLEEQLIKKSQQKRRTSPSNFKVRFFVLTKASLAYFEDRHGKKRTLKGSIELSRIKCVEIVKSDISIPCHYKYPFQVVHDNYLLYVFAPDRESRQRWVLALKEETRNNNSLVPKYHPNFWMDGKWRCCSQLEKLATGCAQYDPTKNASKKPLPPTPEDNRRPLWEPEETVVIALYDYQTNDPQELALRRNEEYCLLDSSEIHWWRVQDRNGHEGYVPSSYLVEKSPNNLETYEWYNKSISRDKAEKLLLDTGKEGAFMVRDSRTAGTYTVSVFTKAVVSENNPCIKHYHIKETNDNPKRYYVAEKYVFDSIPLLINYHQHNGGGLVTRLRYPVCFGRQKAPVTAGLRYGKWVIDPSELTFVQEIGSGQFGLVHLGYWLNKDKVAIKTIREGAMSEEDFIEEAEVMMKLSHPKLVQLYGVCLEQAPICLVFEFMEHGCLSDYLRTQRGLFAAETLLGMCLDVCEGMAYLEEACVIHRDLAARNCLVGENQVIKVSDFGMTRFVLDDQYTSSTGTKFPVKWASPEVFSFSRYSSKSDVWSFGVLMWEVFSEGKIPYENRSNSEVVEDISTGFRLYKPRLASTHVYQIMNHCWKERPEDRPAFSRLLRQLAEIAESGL
Assay: ITK degradation MSD (Meso Scale Discovery) assay
Format: cell-based
Parameters: either human Jurkat (Clone E6-1 ATCC TIB-152) or Motl4 (ATCC CRL-1552), were plated; endogenous in cells; host or cells: Jurkat clone E6-1 (ATCC TIB-152) or Molt4 (ATCC CRL-1552)
Settings: Jurkat or Molt4 cells, 4 or 6 hrs
Experimental: ITK Degradation MSD (Meso Scale Discovery) Assay Compound dilution series (7-point, 5 fold dilutions in DMSO, rows B-H with replicate in Column 1⁄2, 3⁄4, 5⁄6, 7,8, at 2000× the final required concentrations were prepared in 96 well plates (Falcon, cat. no. 353077). Row A, Column 1-8 were control DMSO. The 2000× solutions ranged from 2 mM to 128 nM (final assay concentration range 1 μM to […]). The 2000× solutions were added to cells in […], for a final DMSO concentration of 0.5% and final assay compound concentration of 1×. For the cells, either human Jurkat (Clone E6-1 ATCC TIB-152) or Motl4 (ATCC CRL-1552), were plated at 1×10^6 cells/mL, 100 μL/well ([…]) in complete RPMI (10% FBS, 1% L-glutamine). Cells were incubated for 4 or 6 hrs at 32° C./6% CO2. Following incubation, plates were centrifuged at 1200 rpm for 5 min. supernatant was removed and 50 μL of cell lysis buffer ((MSD Tris lysis buffer (R60TX), Complete Mini EDTA-free protease inhibitor (Sigma 11836170001), Protease Inhibitor Cocktail (Sigma, P2714), Phosphatase Inhibitor Cocktail 2 and 3 (Sigma, P5726 and P0044), and Benzonase (Sigma, E1014)) was added to each well. Plates were sealed and shook at 4° C. for 30 min. Plates were centrifuged and 45 μL was removed for plate assays. Assay plate preparation: Meso Scale Discovery (MSD) multi-array sm spot 96 well plates (Goat anti-Rabbit L^45-RA), were blocked with 3% BSA blocking buffer (3% Bovine Serum Albumin (Sigma A3059)+TBS 0.2% Tween-20) for 1 hr with gentle rocking at room temperature. Plates were then washed with 200 μL of 1× TBST (TBS 0.2% Tween-20) 3 times. After last wash, liquid was removed and 50 μL per well of capture antibody (abcam ITK Y402-ab32507) was added to plates at a 1:1000 dilution in blocking buffer (above). Plates were sealed and rocked at room temperature for 2 hrs. Plates were then washed 3 times with 200 μL of 1× TBST. After last wash, liquid was removed and 45 μL of cell lysate (from above) was added to each plate. Plates were sealed and rocked overnight at 4° C. Next day, cell lysates were removed, and assay plates were washed 3 times with 200 μL of 1× TBST. After last wash, liquid was removed and detection antibody (CST ITK (2F12) #2380) was added at 50 μL per well at a dilution of 1:1000 in blocking buffer. Plates were sealed and rocked at room temperature for 2 hrs. Plates were washed 3 times with 200 uL of 1× TBST. After last wash, liquid was removed, MSD Mouse anti-Rabbit sulfo tag (R32AC-1) was diluted to 1:1000 in blocking buffer. 50 μL was added to each well on the plate. Plates were sealed and incubated at room temperature for 1 hr. Plates were washed 3 times with 200 μL of 1× TBST. After last wash, liquid was removed and 150 μL of 1× MSD Read Buffer T ([…]) was then added to each well for ECL read out. For reading ECL signal, plate is read on a Meso Scale Discovery (MSD) MESO Sector S 600 plate reader. Percent ITK in then calculated as described below. Percent ITK remaining per sample was calculated as follows: [formula] Using Graphpad Prism, % ITK remaining values were plotted as a function of compound concentration. To determine DC50 and Dmax values, resulting curves were fit to the Prism curve-fitting equation “log(inhibitor) vs response-Variable slope (four parameters)” (reported best fit value IC50 used as DC50).

DC50	Dmax	Compound
7 nM	87%	CN(C(=O)CCC1CCN(c2ccc3c(c2)C(=O)N(C2CCC(=O)NC2=O)C3=O)C1)c1ccc2cc(-c3n[nH]c4c3CCC(C)(C)C4)[nH]c2c1 (centres unmarked) [Compound 1, N-(2-(6,6-dimethyl-4,5,6,7-tetrahydro-1H-indazol-3-yl)-1H-indol-6-yl)-3-(1-(2-(2,6-dioxopiperidin-3-yl)-1,3-dioxoisoindolin-5-yl)pyrrolidin-3-yl)-N-methylpropanamide]
1.1 nM	84%	CN(C(=O)CCN1CCN(c2ccc3c(c2)C(=O)N(C2CCC(=O)NC2=O)C3=O)CC1)c1ccc2cc(-c3n[nH]c4c3CCC(C)(C)C4)[nH]c2c1 (centres unmarked) [Compound 2, N-(2-(6,6-dimethyl-4,5,6,7-tetrahydro-1H-indazol-3-yl)-1H-indol-6-yl)-3-(4-(2-(2,6-dioxopiperidin-3-yl)-1,3-dioxoisoindolin-5-yl)piperazin-1-yl)-N-methylpropanamide]
0.0041 nM	81%	C[C@@H](C(=O)N(C)c1ccc2cc(-c3n[nH]c4c3CCC(C)(C)C4)[nH]c2c1)N1CCN(CC2CCN(c3ccc4c(c3)n(C)c(=O)n4C3CCC(=O)NC3=O)CC2)CC1 (stereo partly drawn) [Compound 6, (2S)—N-(2-(6,6-dimethyl-4,5,6,7-tetrahydro-1H-indazol-3-yl)-1H-indol-6-yl)-2-(4-((1-(1-(2,6-dioxopiperidin-3-yl)-3-methyl-2-oxo-2,3-dihydro-1H-benzo[d]imidazol-5-yl)piperidin-4-yl)methyl)piperazin-1-yl)-N-methylpropanamide]
10 nM	83%	C[C@@H](C(=O)N(C)c1ccc2cc(-c3n[nH]c4c3CCC(C)(C)C4)[nH]c2c1)N1CCN(CC2CCN(c3ccc(C(=O)NC4CCC(=O)NC4=O)nc3)CC2)CC1 (stereo partly drawn) [Compound 7, 5-(4-((4-((S)-1-((2-(6,6-dimethyl-4,5,6,7-tetrahydro-1H-indazol-3-yl)-1H-indol-6-yl)(methyl)amino)-1-oxopropan-2-yl)piperazin-1-yl)methyl)piperidin-1-yl)-N-(2,6-dioxopiperidin-3-yl)picolinamide]
1.6 nM	87%	C[C@@H](C(=O)N(C)c1ccc2cc(-c3n[nH]c4c3CCC(C)(C)C4)[nH]c2c1)N1CCN(C[C@H]2CCN(c3ccc4c(c3)C(=O)N(C3CCC(=O)NC3=O)C4=O)C2)CC1 (stereo partly drawn) [Compound 33, (2S)—N-(2-(6,6-dimethyl-4,5,6,7-tetrahydro-1H-indazol-3-yl)-1H-indol-6-yl)-2-(4-(((3R)-1-(2-(2,6-dioxopiperidin-3-yl)-1,3-dioxoisoindolin-5-yl)pyrrolidin-3-yl)methyl)piperazin-1-yl)-N-methylpropanamide]
1 nM	86%	C[C@@H](C(=O)N(C)c1ccc2cc(-c3n[nH]c4c3CCC(C)(C)C4)[nH]c2c1)N1CCN(C(=O)C2CN(C3CCN(c4ccc5c(c4)C(=O)N(C4CCC(=O)NC4=O)C5=O)CC3)C2)CC1 (stereo partly drawn) [Compound 34, (2S)—N-(2-(6,6-dimethyl-4,5,6,7-tetrahydro-1H-indazol-3-yl)-1H-indol-6-yl)-2-(4-(1-(1-(2-(2,6-dioxopiperidin-3-yl)-1,3-dioxoisoindolin-5-yl)piperidin-4-yl)azetidine-3-carbonyl)piperazin-1-yl)-N-methylpropanamide]
8 nM	83%	CN(C(=O)C1CN(C2CCN(c3ccc4c(c3)C(=O)N(C3CCC(=O)NC3=O)C4=O)CC2)C1)c1ccc2cc(-c3n[nH]c4c3CCC(C)(C)C4)[nH]c2c1 (centres unmarked) [Compound 35, N-(2-(6,6-dimethyl-4,5,6,7-tetrahydro-1H-indazol-3-yl)-1H-indol-6-yl)-1-(1-(2-(2,6-dioxopiperidin-3-yl)-1,3-dioxoisoindolin-5-yl)piperidin-4-yl)-N-methylazetidine-3-carboxamide]

Reference: US20240279202A1 (NURIX THERAPEUTICS, INC., priority 2021, published 2024)
